Experimental data: patent publication US11746103B2, “ALK-5 inhibitors and uses thereof” (Sumitomo Pharma Oncology, Inc., priority 2020, dated 2023)

Legend:
[1] = system: TGF-beta induced SMAD signaling; assay: RDSR (RD SMAD reporter) Cellular Reporter Assay; format: cell-based; settings: Homo sapiens; 200 pg/ml rhTGF-beta1, 24 h; read-out: RD-SMAD reporter activity
Method in brief: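 Human rhabdomyosarcoma RD cells stably carrying an SBE-driven luc2P luciferase reporter. Inhibition of SMAD signaling was quantified from ONE-Glo luminescence.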

[2] = system: TGF-β1 mediated alpha-SMA expression in primary human bronchial fibroblasts derived from IPF patients; assay: Fibroblast to Myofibroblast Transformation (FMT) assay; settings: for max PIN of TGF-β1 mediated alpha-SMA expression: in at least two donors
Experimental: To test the ability of compounds of the invention to inhibit the TGF-β1 dependent transition of fibroblasts to myofibroblasts in a relevant disease model of IPF, a study was carried out using an FMT assay employing lung fibroblasts from IPF patients. In this model the transition of fibroblasts to myofibroblasts is determined by the expression of the biomarker alpha smooth muscle actin (SMA).
Each drug concentration condition was evaluated in biological duplicates. One hour after compound addition, cells were stimulated with 1.25 ng/ml of TGF-01 and cultured for 72 hours thereafter. At the end of 72 hours cells were fixed using formaldehyde. The results were generated using high content imaging after staining cells using the nuclear stain DAPI as well as evaluation of the expression of alpha SMA. […] As a negative control 0.1% DMSO was used matching the DMSO concentration in treated wells.

[3] = system: human CD4+CD45RA+ naïve T cells; assay: In vitro Treg differentiation study; format: cell-based; settings: CD3/CD28+IL2+TGFβ, 5 days
Experimental: The effect of EX-11 on Treg differentiation was evaluated using human CD4^+CD45RA^+ naïve T cells from Lonza. CD4^+/CD45RA^+ naïve T cells were treated with EX-11, CD3/CD28 ([…] Technologies) and 10 ng/ml of IL-2 (Thermo Fisher Scientific) with or without 5 ng/ml TGFβ (R&D Systems) in ImmunoCult™-XF T cell expansion medium for 5 days. Flow cytometry was performed using anti-human FoxP3 staining kit (BD biosciences) to evaluate the frequency of CD4^+CD25^+Foxp3^+ Treg cells.

[4] = system: EMT6 tumors; assay: Immunohistochemistry (CD31, CD45) of EMT6 tumors; format: in vivo, mouse
Excerpt: EX-11 is an ALK5 inhibitor that has been proposed to affect multiple processes in the tumor microenvironment through downregulation of TGF-β signaling, including vasculature remodeling and leukocyte infiltration. The objective of this study was to compare the levels of CD31 and CD45, subject to different treatment conditions in 4T1, EMT6, and S91 tumors. CD31 is an established marker of vascular differentiation, and CD45 is an established marker of leukocytes.
For IHC analyses, tumors from three syngeneic models of cancer were used: • 1) Example L: 4T1 (triple-negative breast cancer [TNBC]); Balb/c mice • 2) Example K: EMT6 (TNBC); Balb/C mice • 3) Example M: S91 (melanoma); DBA/2 mice
Tumors were fixed in formalin for 48 hours, then stored in […] prior to paraffin embedding. Embedded blocks were sectioned at […] and placed on glass slides for IHC staining.
Leica Biosystems Bond Software and Leica Bond Rx Research Stainer were used per protocol to stain tissue sections. […] Images were manually scored by a pathologist, blinded to treatment information. […] CD45 was scored by calculating the number of CD45-positive cells divided by the total number of viable nucleated cells within the whole tumor region(s). CD31 density was scored by calculating the total number of CD31 positive vessels divided by the whole tumor area (mm^2).

| Structure (SMILES) | IC50 [1] [nM] | LogM IC50 αSMA ([2]; donor IPF05) [LogM] | Max PIN (%) ([2]; donor IPF05) | potentially toxic (>25% loss of nuclei) ([2]; donor IPF05) | LogM IC50 αSMA ([2]; donor IPF06) [LogM] | Max PIN (%) ([2]; donor IPF06) | LogM IC50 αSMA ([2]; donor IPF08) [LogM] | Max PIN (%) ([2]; donor IPF08) | potentially toxic (>25% loss of nuclei) ([2]; donor IPF08) | max PIN of TGF-β1 mediated alpha-SMA expression [2] | Treg frequency (CD4+CD25+Foxp3+ Treg cells as percentage of cells not treated with TGFβ) ([3]; 30 nM) [%] | Treg frequency (CD4+CD25+Foxp3+ Treg cells as percentage of cells not treated with TGFβ) ([3]; 300 nM) [%] | Treg frequency (CD4+CD25+Foxp3+ Treg cells as percentage of cells not treated with TGFβ) ([3]; 3000 nM) [%] | CD31 staining (blood vessel density) [4] | CD45 (percentage of CD45+ cells) ([4]; vs anti-PD-1 and vehicle groups) | potentially toxic (>25% loss of nuclei) ([2]; donor IPF06) | inhibition of TGF-β-mediated alpha-SMA expression ([2]; in all three donors) |
| --- | --- | --- | --- | --- | --- | --- | --- | --- | --- | --- | --- | --- | --- | --- | --- | --- | --- |
| Cc1cccc2c(Nc3ccnc(Nc4ccc(N5CCOCC5)cc4)n3)cnnc12 [EX-10, N4-(8-methylcinnolin-4-yl)-N2-(4-morpholino-phenyl)-pyrimidine-2,4-diamine] | < 100 | −6.8 | 106.4 | >−5.5 | −6.7 | 110.3 | −7.0 | 100.3 | >−5.5 | greater than 75 |  |  |  |  |  |  |  |
| Cc1cccc2c(Nc3ccnc(Nc4cccc(N5CCOCC5)c4)n3)cnnc12 [EX-11, N4-(8-methylcinnolin-4-yl)-N2-(3-morpholinophenyl)pyrimidine-2,4-diamine] | < 100 | −7.2 | 107.2 | >−6.0 | −7.0 | 112.9 | −7.3 | 103.7 | >−6.0 | greater than 75 | 480 | 342 | 126 | no difference in CD31 staining | increased | >−5.5 | full concentration-dependent inhibition |
